For three molecules, Kd results are on record in PMC5071164 (Biochimica et biophysica acta, 2016).

Assay [1] deals with T1, Farnesoid X receptor (FXR) ligand binding domain (Homo sapiens, UniProt Q96RI1).
T1 sequence (Q96RI1 203-486): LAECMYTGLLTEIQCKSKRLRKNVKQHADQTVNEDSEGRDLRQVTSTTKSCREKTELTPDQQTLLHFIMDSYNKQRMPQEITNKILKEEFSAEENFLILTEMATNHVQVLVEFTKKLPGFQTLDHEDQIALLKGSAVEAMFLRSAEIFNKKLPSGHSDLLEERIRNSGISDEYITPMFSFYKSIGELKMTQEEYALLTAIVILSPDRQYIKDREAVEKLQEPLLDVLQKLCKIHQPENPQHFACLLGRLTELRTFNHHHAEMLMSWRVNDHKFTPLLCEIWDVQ
Put plainly: Intrinsic tryptophan fluorescence quenching titration.

In assay [2] the target is T1, Farnesoid X receptor (FXR) ligand binding domain. Described as above. The source holds these as a separate data set.

SMILES strings stand for the structures. Like-named read-outs stand apart in the source and are kept apart here.

Consider `COc1cc(O)c(CC=C(C)C)c(O)c1C(=O)/C=C/c1ccc(O)cc1` [XN, xanthohumol], for which the Kd in assay [1] stood at 2680 ± 110 nM.
For `COc1cc(O)c(CC=C(C)C)c2c1C(=O)CC(c1ccc(O)cc1)O2` (stereo not drawn) [IX, isoxanthohumol], in assay [2], the Kd stood at 5.92 ± 0.25 µM.
In the case of `CC(C)=CCc1c(O)cc(O)c2c1O[C@H](c1ccc(O)cc1)CC2=O` [8-PN, 8-prenylnaringenin], the Kd in assay [2] was 2.2 ± 0.05 µM.
